# Data from patent publication US10889543B2, “Fine-tune modulators of neuronal excitability for neuropsychiatric disorders” (THE BOARD OF REGENTS OF THE UNIVERSITY OF TEXAS SYSTEM, priority 2016, dated 2021).
# Residues, ends and D or L forms follow the SMILES beside them. *: point of attachment. Fmoc = O=C(OCC1c2ccccc2-c2ccccc21)*; Cbz = O=C(OCc1ccccc1)*; Boc = CC(C)(C)OC(=O)*
# Target: T1, FGF14:Nav1.6 complex (Homo sapiens, UniProt Q92915)
# T1 construct: FGF14 and the C-tail of Nav1.6 channels are fused to vectors expressing CLuc and NLuc luciferase reporter; expressed in transfected cells; host or cells: HEK293, transient transfection
# T1 sequence (Q92915 1-252 isoform Q92915-2): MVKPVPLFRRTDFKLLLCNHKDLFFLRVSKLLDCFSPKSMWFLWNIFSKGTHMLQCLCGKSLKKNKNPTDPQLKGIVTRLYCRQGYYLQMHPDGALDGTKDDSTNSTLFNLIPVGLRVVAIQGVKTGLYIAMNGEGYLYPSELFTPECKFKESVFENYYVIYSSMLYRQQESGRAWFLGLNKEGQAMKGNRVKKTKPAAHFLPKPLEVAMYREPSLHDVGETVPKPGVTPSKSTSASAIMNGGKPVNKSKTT
# Assay: Split-luciferase complementation assay (LCA) in HEK293 cells expressing CLuc-FGF14 and CD4-Nav1.6-NLuc
# Assay type: cell-based
# Settings: 50 μM, normalized to DMSO control
# Method: Detailed methods for LCA can be found is known in the art. See e.g., Shavkunov A. S., et al., Methods in Molecular Biology 1278:497-514 (2015). Statistical values were calculated as mean and standard error of the mean (mean±SEM), unless otherwise specified. The statistical significance (*p<0.05) of different groups was determined by Student's t-test, one-way ANOVA with post-hoc Bonferroni's method or Kruskal-Wallis one-way ANOVA on ranks with post-hoc Dunn's method using Sigma Stat (San Jose, Calif.) and Graph PrismR (La Jolla, Calif.) software. Dose-response modulation was determined by: y=START+(END−START)*x^n/(k^n+x^n) where k, Michaelis constant; n, cooperative sites; x, independent variable; y, dependable variable.
# To monitor the role of compounds of the invention in the FGF14:Nav1.6 complex, certain embodiments of the invention were screened by split-luciferase complementation assay (LCA) where FGF14 and the C-tail of Nav1.6 channels are fused to vectors expressing CLuc and NLuc luciferase reporter. Compounds of the invention, as exemplified by, compounds ZL0141, ZL0148, ZL0181, and ZL0182 (see FIG. 1) were tested at 50 μM in HEK293 cells expressing CLuc-FGF14 and CD4:Nav1.6-NLuc. […] None of the tested compounds interfered with the full-length luciferase enzyme (FIG. 2B, Chart C). Dose-response studies were then performed with compounds ZL0148, ZL0181, and ZL0182 against the FGF14:Nav1.6 complex.
row,luminescence response compared to control (DMSO) [%],Compound
1,103±14,"CC(C)C[C@H](NC(=O)[C@H](Cc1ccccc1)NC(=O)OCc1ccccc1)C(=O)N1CCC[C@H]1C(N)=O [ZL0141, Z-Phe-Leu-Pro-NH2] (Cbz-Phe-Leu-Pro-NH2)"
2,132±9,"CC(=O)N[C@@H](Cc1ccccc1)C(=O)N[C@@H](CC(C)C)C(=O)N[C@@H](CCCCNC(=O)OC(C)(C)C)C(N)=O [ZL0148, Ac-Phe-Leu-Lys(Boc)-NH2] (Ac-Phe-Leu-Lys(Boc)-NH2)"

row,Compound,luminescence response compared to control (DMSO) [%]
1,"CC(=O)N[C@@H](Cc1ccccc1)C(=O)N[C@@H](CC(C)C)C(=O)N1CCC[C@H]1C(=O)N[C@@H](CCCCNC(=O)OCC1c2ccccc2-c2ccccc21)C(=O)O [ZL0182, Ac-Phe-Leu-Pro-Lys(Fmoc)-OH] (Ac-FLPK(Fmoc)-OH)",129±13
